Reference: patent US20230330093A1, “APPLICATION OF NITROGEN-CONTAINING SATURATED HETEROCYCLIC COMPOUND” (SHANGHAI PHARMACEUTICALS HOLDING CO., LTD., priority 2020, published 2023)

Test system: cynomolgus monkeys
Assay: 4-week safety study: serum biochemistry
Format: in vivo
Description: […] (1) Hematological and coagulation index examination were performed using a Bayer ADVIA2120 (Germany) and a Sysmex CA-1500 (Japan). (2) The serum biochemical examination was assessed using a HITACHI 7080 automated analyzer (Japan) and an Easylyte PLUS electrolyte analyzer (MEDICA, America). (3) The 24-h pooled urine of each animal was collected by a tray under each cage. Urinalysis was carried out using Uritest-300 (China). (4) The 24-h pooled faeces of each monkey were collected by a tray under each cage. Fecal occult blood was detected. (5) ACCESS 2 Chemiluminescence immunoassay was used for myocardial troponin (TropI, non-GLP) test.

COC(=O)NCCCn1nc([C@@H](C)N(C(=O)[C@H]2CNCCO2)C2CC2)c2ccc(C)nc21 [compound of Formula I]
BUN (Female, 20 mg/kg, d0): 6.1 ± 1.1 mmol/L
CHOL (Female, 20 mg/kg, d0): 3.0 ± 0.5 mmol/L
CPK (Female, 20 mg/kg, d0): 158.4 ± 63.5 U · L^−1
CREA (Female, 20 mg/kg, d0): 59 ± 4 µM
K (Female, 20 mg/kg, d0): 5.0 ± 0.3 mmol/L
Na (Female, 20 mg/kg, d0): 149.4 ± 3.5 mmol/L
BUN (Female, 20 mg/kg, d14): 5.4 ± 0.9 mmol/L
CHOL (Female, 20 mg/kg, d14): 2.8 ± 0.2 mmol/L
CPK (Female, 20 mg/kg, d14): 151.6 ± 45.2 U · L^−1
CREA (Female, 20 mg/kg, d14): 52.4 ± 3.8 µM
K (Female, 20 mg/kg, d14): 5.2 ± 0.2 mmol/L
Na (Female, 20 mg/kg, d14): 149.6 ± 1.7 mmol/L
BUN (Female, 20 mg/kg, d26): 6.3 ± 1.1 mmol/L
CHOL (Female, 20 mg/kg, d26): 2.7 ± 0.3 mmol/L
CPK (Female, 20 mg/kg, d26): 149.4 ± 58.7 U · L^−1
CREA (Female, 20 mg/kg, d26): 51.2 ± 3.6 µM
K (Female, 20 mg/kg, d26): 4.9 ± 0.5 mmol/L
Na (Female, 20 mg/kg, d26): 149.2 ± 4.3 mmol/L
BUN (Female, 20 mg/kg, d 56): 6.0 ± 0.6 mmol/L
CHOL (Female, 20 mg/kg, d 56): 3.0 ± 0.1 mmol/L
CPK (Female, 20 mg/kg, d 56): 129.0 ± 5.7 U · L^−1
CREA (Female, 20 mg/kg, d 56): 51.5 ± 4.9 µM
K (Female, 20 mg/kg, d 56): 5.0 ± 0.5 mmol/L
Na (Female, 20 mg/kg, d 56): 147.2 ± 4.2 mmol/L
BUN (Female, 100 mg/kg, d0): 5.9 ± 1.1 mmol/L
CHOL (Female, 100 mg/kg, d0): 3.8 ± 1.3 mmol/L
CPK (Female, 100 mg/kg, d0): 187.6 ± 75.0 U · L^−1
CREA (Female, 100 mg/kg, d0): 55.2 ± 4.7 µM
K (Female, 100 mg/kg, d0): 4.5 ± 0.4 mmol/L
Na (Female, 100 mg/kg, d0): 149.4 ± 1.9 mmol/L
BUN (Female, 100 mg/kg, d14): 6.4 ± 0.8 mmol/L
CHOL (Female, 100 mg/kg, d14): 2.9 ± 0.6 mmol/L
CPK (Female, 100 mg/kg, d14): 247.2 ± 89.5 U · L^−1
CREA (Female, 100 mg/kg, d14): 55.2 ± 3.8 µM
K (Female, 100 mg/kg, d14): 4.7 ± 0.5 mmol/L
Na (Female, 100 mg/kg, d14): 149.8 ± 3.7 mmol/L
BUN (Female, 100 mg/kg, d26): 6.4 ± 1.6 mmol/L
CHOL (Female, 100 mg/kg, d26): 3.1 ± 0.5 mmol/L
CPK (Female, 100 mg/kg, d26): 195.0 ± 96.8 U · L^−1
CREA (Female, 100 mg/kg, d26): 51.2 ± 3.6 µM
K (Female, 100 mg/kg, d26): 4.8 ± 0.6 mmol/L
Na (Female, 100 mg/kg, d26): 149.6 ± 3.8 mmol/L
BUN (Female, 100 mg/kg, d 56): 5.2 ± 0.2 mmol/L
CHOL (Female, 100 mg/kg, d 56): 3.6 ± 0.2 mmol/L
CPK (Female, 100 mg/kg, d 56): 112.0 ± 12.7 U · L^−1
CREA (Female, 100 mg/kg, d 56): 54.5 ± 4.9 µM
K (Female, 100 mg/kg, d 56): 4.2 ± 0.2 mmol/L
Na (Female, 100 mg/kg, d 56): 147.9 ± 1.3 mmol/L
BUN (Female, 450 mg/kg, d0): 6.1 ± 0.7 mmol/L
CHOL (Female, 450 mg/kg, d0): 3.3 ± 0.4 mmol/L
CPK (Female, 450 mg/kg, d0): 163.2 ± 56.2 U · L^−1
CREA (Female, 450 mg/kg, d0): 54.4 ± 7.1 µM
K (Female, 450 mg/kg, d0): 5.1 ± 0.5 mmol/L
Na (Female, 450 mg/kg, d0): 150.1 ± 2.2 mmol/L
BUN (Female, 450 mg/kg, d14): 14.3 ± 11.8 mmol/L
CHOL (Female, 450 mg/kg, d14): 2.4 ± 0.9 mmol/L
CPK (Female, 450 mg/kg, d14): 815.2 ± 1316.0 U · L^−1
CREA (Female, 450 mg/kg, d14): 162 ± 204 µM
K (Female, 450 mg/kg, d14): 5.5 ± 0.2 mmol/L
Na (Female, 450 mg/kg, d14): 144.6 ± 3.5 mmol/L
BUN (Female, 450 mg/kg, d26): 9.7 ± 1.0 mmol/L
CHOL (Female, 450 mg/kg, d26): 2.0 ± 0.7 mmol/L
CPK (Female, 450 mg/kg, d26): 328.5 ± 259.1 U · L^−1
CREA (Female, 450 mg/kg, d26): 64.3 ± 7.1 µM
K (Female, 450 mg/kg, d26): 5.3 ± 0.4 mmol/L
Na (Female, 450 mg/kg, d26): 145.0 ± 2.6 mmol/L
BUN (Female, 450 mg/kg, d 56): 5.6 ± 0.6 mmol/L
CHOL (Female, 450 mg/kg, d 56): 3.1 ± 0.3 mmol/L
CPK (Female, 450 mg/kg, d 56): 290.0 ± 176.8 U · L^−1
CREA (Female, 450 mg/kg, d 56): 57 ± 2.8 µM
K (Female, 450 mg/kg, d 56): 4.8 ± 0.2 mmol/L
Na (Female, 450 mg/kg, d 56): 145.7 ± 0.9 mmol/L
BUN (Male, 20 mg/kg, d0): 5.1 ± 0.9 mmol/L
CHOL (Male, 20 mg/kg, d0): 2.9 ± 0.5 mmol/L
CPK (Male, 20 mg/kg, d0): 156.6 ± 76.3 U · L^−1
